In brackets after ≈: the same amount, converted by molar mass.
Legend:
[1] = design: method as in PMID 36559181, doi:10.1007/s40005-015-0206-z, PMID 20582194, PMID 10551439; settings: conventional oral tablets; cited from earlier work
[2] = Preliminary tests of equilibration time for solubility in SC-CO2 (Table S1); assay type: physicochemical; settings: supercritical CO2, 65 °C, organic solvent or mixture, thermodynamic from solid, read-out: Solubility (preliminary test)
Experimental: (§1) A specialized high-pressure system is employed to measure the solubility of rizatriptan using gravimetric techniques in a supercritical CO2[6]. A 200 mL vessel capable of withstanding pressures up to 35 MPa and temperatures up to 423 K is prepared with leak-free seals, valves, and fittings. All valves and connectors were 1/8 inch in size. The system’s pressure and temperature sensors are calibrated for accuracy. Next, 2000 mg of rizatriptan powder is weighed precisely using an analytical balance with 0.01 mg of sensitivity. The powder is then compacted into 5-mm diameter tablets to ensure uniformity and structural integrity. The tablets are placed in a basket inside the vessel to maximize their exposure to SC-CO2. CO2 is introduced gradually using a high-precision pump (SC-1000, SUPEREX), with the pressure increased in 0.05 MPa increments to maintain stability. The pressure is monitored and held within ± 0.01 MPa. Temperature is controlled within ± 0.1 K using a thermocouple, and the mixture is stirred at 250 rpm to ensure uniformity. […] The pressure and temperature indicators are checked to ensure stability. After equilibration, the vessel is carefully depressurized to ambient conditions to halt dissolution without losing the sample. The remaining tablets are then removed and cleaned of residual CO2. If needed, they are dried in a desiccator. The undissolved drug is weighed using a high-precision balance. The experiment is replicated at least three times to calculate the mean solubility and standard deviation. The following formula was used to calculate the mass of dissolved rizatriptan:1
Table S1. Preliminary tests.

[3] = Enthalpies (total, vaporization, solvation) derived from density-based solubility models; assay type: physicochemical; settings: SC-CO2
Experimental: This study thoroughly examines the solubility of rizatriptan in SC-CO2 for pharmaceutical processing by supercritical fluid technology. A series of experimental solubility measurements were conducted at a range of temperatures, from 308.2 to 338.2 K, and pressures ranging from 12 to 30 megapascals. Seven density-based models ( Chrastil, Bartle, K–J, Méndez–Santiago–Teja, Bian et al., and Sodeifian et al. (Ⅰ and Ⅱ)) and three equations of state (Peng–Robinson, Soave–Redlich–Kwong, and regular solution) were employed to analyze the resulting data. Additionally, the enthalpies of the total, vaporization, and solvation processes were derived to elucidate phase behavior.
This leads to the logarithmic relationship, where the enthalpy term combines solvation and vaporization effects
The Bartle model extends the concept by normalizing solubility with pressure and using a reduced density term, allowing direct estimation of the solute’s heat of vaporization from parameter. […] The MST model was derived from a Taylor expansion of the Helmholtz free energy near the solvent’s critical point, focusing on infinite dilution behavior. By incorporating the Clausius–Clapeyron equation for missing sublimation pressure data, it becomes a robust three-parameter tool. It excels in self-consistency checks, where plotting ) against density (ρ), should yield a single line for reliable data. […]

[4] = Solubility of rizatriptan in supercritical CO2, static gravimetric method; assay type: physicochemical
Experimental: as §1
Include the molecular weights of rizatriptan ([…]) and CO2 (44.01 g/mol) in the mole fraction calculations.2 3 4 5
The measurements were conducted at four isotherms (308.2 K, 318.2 K, 328.2 K, and 338.2 K) and […] pressure points (12, 15, 18, 21, 24, 27, 30 MPa). Table 3 documents the experimental conditions, including temperature, pressure, SC-CO2 density, mole fraction, standard deviation, and solubility in grams per liter.

In the case of CN(C)CCc1c[nH]c2ccc(Cn3cncn3)cc12 [Rizatriptan, Rizatriptan benzoate], the bioavailability [1] is given as 40–45%, the solubility at 60 min ([2]; T 338, P 30, Time 60) is given as 78.8 ± 0.7 µg/mL (≈ 293 µM) and the solubility at 90 min ([2]; T 338, P 30, Time 90) is given as 167.6 ± 0.8 µg/mL (≈ 622 µM). For the same molecule, the solubility at 120 min ([2]; T 338, P 30, Time 120) was 212.9 ± 0.8 µg/mL (≈ 790 µM), the solubility at 150 min ([2]; T 338, P 30, Time 150) was 279 ± 1.1 µg/mL (≈ 1040 µM) and the solubility at 180 min ([2]; T 338, P 30, Time 180) was 285.8 ± 1.2 µg/mL (≈ 1060 µM). It also gave a solubility at 210 min ([2]; T 338, P 30, Time 210) of 301.8 ± 1.4 µg/mL (≈ 1120 µM), a solubility at 240 min ([2]; T 338, P 30, Time 240) of 301.8 ± 1.5 µg/mL (≈ 1120 µM) and an enthalpy of vaporization [3] of 12.08 kcal/mol. The “overall (total) enthalpy” value [3] was 9.097 kcal/mol, the “mole fraction in SC-CO2” value ([4]; 308.2 K, 12 MPa) was 0.09 × 10^−4 and the “mole fraction in SC-CO2” value ([4]; 308.2 K, 30 MPa) was 0.286 × 10^−4. For the same molecule, the “mole fraction in SC-CO2” value ([4]; 328.2 K, 12 MPa) was 0.45 × 10^−5, the “mole fraction in SC-CO2” value ([4]; 328.2 K, 30 MPa) was 3.80 × 10^−5 and the “mole fraction in SC-CO2” value ([4]; 338.2 K, 12 MPa) was 0.024 × 10^−4. The “mole fraction in SC-CO2” value ([4]; 338.2 K, 30 MPa) was 0.419 × 10^−4, the “mole fraction y in SC-CO2” value ([4]; 338.2 K, 30 MPa) was 4.19 × 10^−5 and the “Experimental mole fraction (y) in supercritical carbon dioxide, y × 10^4” value (from here on “Experimental mole fraction (y)”) ([4]; T 308.0 K (text 308.2 K), P 12 MPa, ρCO2 768.52 kg/m^3) was 0.090 × 10^4. The “Experimental mole fraction (y)” value ([4]; T 308.0 K (text 308.2 K), P 15 MPa, ρCO2 816.10 kg/m^3) was 0.121 × 10^4, the “Experimental mole fraction (y)” value ([4]; T 308.0 K (text 308.2 K), P 18 MPa, ρCO2 816.10 kg/m^3) was 0.141 × 10^4 and the “Experimental mole fraction (y)” value ([4]; T 308.0 K (text 308.2 K), P 21 MPa, ρCO2 874.55 kg/m^3) was 0.177 × 10^4. The “Experimental mole fraction (y)” value ([4]; T 308.0 K (text 308.2 K), P 24 MPa, ρCO2 895.66 kg/m^3) was 0.227 × 10^4, the “Experimental mole fraction (y)” value ([4]; T 308.0 K (text 308.2 K), P 27 MPa, ρCO2 913.70 kg/m^3) was 0.258 × 10^4 and the “Experimental mole fraction (y)” value ([4]; T 308.0 K (text 308.2 K), P 30 MPa, ρCO2 929.85 kg/m^3) was 0.286 × 10^4. For the same molecule, the “Experimental mole fraction (y)” value ([4]; T 318.0 K (text 318.2 K), P 12 MPa, ρCO2 659.80 kg/m^3) was 0.069 × 10^4, the “Experimental mole fraction (y)” value ([4]; T 318.0 K (text 318.2 K), P 15 MPa, ρCO2 743.83 kg/m^3) was 0.126 × 10^4 and the “Experimental mole fraction (y)” value ([4]; T 318.0 K (text 318.2 K), P 18 MPa, ρCO2 790.29 kg/m^3) was 0.162 × 10^4. The “Experimental mole fraction (y)” value ([4]; T 318.0 K (text 318.2 K), P 21 MPa, ρCO2 823.80 kg/m^3) was 0.215 × 10^4, the “Experimental mole fraction (y)” value ([4]; T 318.0 K (text 318.2 K), P 24 MPa, ρCO2 850.15 kg/m^3) was 0.281 × 10^4 and the “Experimental mole fraction (y)” value ([4]; T 318.0 K (text 318.2 K), P 27 MPa, ρCO2 872.14 kg/m^3) was 0.322 × 10^4. For the same molecule, the “Experimental mole fraction (y)” value ([4]; T 318.0 K (text 318.2 K), P 30 MPa, ρCO2 890.90 kg/m^3) was 0.339 × 10^4, the “Experimental mole fraction (y)” value ([4]; T 328.0 K (text 328.2 K), P 12 MPa, ρCO2 506.75 kg/m^3) was 0.045 × 10^4 and the “Experimental mole fraction (y)” value ([4]; T 328.0 K (text 328.2 K), P 15 MPa, ρCO2 654.94 kg/m^3) was 0.099 × 10^4. For the same molecule, the “Experimental mole fraction (y)” value ([4]; T 328.0 K (text 328.2 K), P 18 MPa, ρCO2 724.13 kg/m^3) was 0.176 × 10^4, the “Experimental mole fraction (y)” value ([4]; T 328.0 K (text 328.2 K), P 21 MPa, ρCO2 768.74 kg/m^3) was 0.241 × 10^4 and the “Experimental mole fraction (y)” value ([4]; T 328.0 K (text 328.2 K), P 24 MPa, ρCO2 801.92 kg/m^3) was 0.302 × 10^4. For the same molecule, the “Experimental mole fraction (y)” value ([4]; T 328.0 K (text 328.2 K), P 27 MPa, ρCO2 828.51 kg/m^3) was 0.353 × 10^4.
